From patent US5734081A, “Arylthio compounds” (Warner-Lambert Company, priority 1995, dated 1998)
Where two headings read alike, the source gives them in different places.

Experiments:
[1] = target: T1, HIV-1 Nucleocapsid Protein (NCp7) (Human immunodeficiency virus type 1 group M subtype B, UniProt P12493); experiment: Zinc extrusion assay (TSQ fluorescence) from the zinc fingers of HIV-1 nucleocapsid protein (NCp7); assay type: biochemical; details: 10 μM compound, 2.8 μM NCp7, pH 7.4, 26° C., 90 minutes
T1 construct: The NCp7 protein containing 2 Zn-fingers and 2 Zn ions is incubated with drug
From the text: The compounds of the present invention cause the extrusion of zinc from the nucleocapsid protein (NCp7) of HIV-1. The NC protein is highly conserved among all retroviruses (South T., Blake P., et al., Biochemistry, 1990;29:7786) and is essential for viral infectivity (Aldovini A. and Young R., J. Virology, 1990;64:1920 and Gorelick R., Nigida S., et al., J. Virology, 1990;64:3207). The zinc is normally held in NC proteins by 1 or 2 zinc fingers. In the case of HIV-1, 2 zinc fingers are present (Summers M., South T., et al., Biochemistry, 1990;29:329) and are involved specifically with the PSI site on viral RNA which controls the packaging of viral RNA. Interference of this packaging causes the formation of non-infectious virions (Dannull J., Surovoy A., et al., EMBO, 1994;13:1525). It has previously been shown that compounds that cause zinc extrusion have potent anti-HIV activity in multiple cell lines and against all retroviruses (Rice W., Schaeffer C., et al., Nature, 1993;361:473).
A fluorescence-based assay has been developed to monitor the ejection of zinc from purified HIV-1 NCp7. The fluorophore, N-(6-methoxy-8-quinolyl)-p-toluenesulfonamide (TSQ), has an increased fluorescent signal upon bonding zinc ion in solution. The NCp7 protein containing 2 Zn-fingers and 2 Zn ions is incubated with drug causing the extrusion of Zn ions. The released Zn is then sequestered by the TSQ and the increased fluorescence monitored relative to control. […] Fluorescence (excitation 355 nm emission 400 nm) was monitored versus time. Controls were the NCp7 under assay conditions without drug, and apo NCp7 (no Zn) with drug. The % Zn extrusion was calculated based on the actual fluorescence measured divided by the fluorescence of all theoretical Zn extruded (5.6 μM)×100.
Table 1 below presents data for several invention compounds evaluated in the zinc extrusion assay described above.

HIV-1 [2] = experiment: HIV H9 cell assay, anti-HIV-1 activity; assay type: cell-based; details: Human immunodeficiency virus 1, H9, 168 h, read-out: EC50 (Effective Concentration which protects cells from viral cytopathic effects)
From the text: Another test system utilized to evaluate the invention compounds is called HIV H9 assay. The HIV H9 cell assay measures the inhibitor concentration required to suppress HIV-1 virus replication. In this system, viral growth occurs through multiple rounds of the life-cycle. Any suppression of the replication kinetics results in a geometric decrease in virus production. As a result, this assay is a sensitive means of measuring the ability of a compound to inhibit HIV-1 viral replication.
(§1) The H9 T-cell line is batch infected with HIV virus at an M0I of 0.01. After 2 hours absorption, the cells are washed, resuspended in RPMI-1640/10% fetal calf serum, and seeded at […] of a 96-well plate. A duplicate plate of uninfected H9 cells is prepared for the cytotoxicity assay. Drugs are serially diluted 1/3.16 in DMSO, transferred to media at an 8× concentration, and then added to the cultures in triplicate. The final DMSO concentration of 0.002 (0.2%).
(§2) Viral production is measured by RT assay and cytotoxicity is measured by XTT assay at 7 days post-infection. The RT assay is performed as a modification of Borroto-Esoda and Boone, J. Virol., 1991;65:1952-1959 and quantitated using a Molecular Dynamics Phosphoimager with Imagequant software. The XTT assay is performed as a modification of Roehm, et al., J. Immuno. Methods., 1991;142:257-265 and quantitated using a molecular Devices Thermomax plate reader with Softmax software.
(§3) Data is electronically transferred to a Microsoft Excell spreadsheet for analysis. The RT assay values equivalent to 50% and 90% inhibition of virus production are calculated from the untreated controls. The concentrations of inhibitor required to produce these values (IC50 and IC90) are interpolated from data points flanking these RT activities. The XTT assay values equivalent to 50% cytotoxicity are calculated from the untreated controls. The concentrations of inhibitor required to produce this value are interpolated from data points flanking these XTT values.

[3] = H9 cell cytotoxicity (XTT assay, uninfected cells); assay type: cell-based; details: human, drug alone, read-out: IC50 (Inhibitory Concentration where drug alone inhibits cell growth)
Protocol: as §1, §2, §3

HIV-1 [4] = experiment: CEM cell assay, anti-HIV-1 activity; assay type: cell-based; details: Human immunodeficiency virus 1, CCRF-CEM, HIV-1, 6 or 7 days, read-out: EC50 (Effective Concentration which protects cells from viral cytopathic effects)
From the text: The test systems utilized to establish the antiviral activity of the arylthio compounds of this invention are well recognized in the art and are routinely employed for such purpose. For example, the assay utilized to evaluate the compounds activity against the HIV virus is that employed by the U.S. National Cancer Institute as described by Weislow O. S., et al., J. Natl. Cancer Inst., 1989;81:577-586, incorporated herein by reference.
The procedure is designed to detect agents acting at any stage of the virus reproductive cycle. The assay basically involves the killing of T4 lymphocytes by HIV. Small amounts of HIV are added to cells, and at least two complete cycles of virus reproduction are necessary to obtain the required cell killing. Agents which interact with virions, cells, or virus gene-products to interfere with viral activities will protect cells from cytolysis. The system is automated in several features to accommodate large numbers of candidate agents, and is generally designed to detect anti-HIV activity. However, compounds which degenerate or are rapidly metabolized in the culture conditions may not show activity in this screen.
(§4) Yet another test system employed to determine antiviral activity is called the CEM cell assay.
(§5) T4 lymphocytes (CEM cell line) are exposed to HIV at a virus to cell ratio approximately 0.05, and plated along with noninfected control cells in 96-well microliter plates.
(§6) The candidate agent is dissolved in dimethyl sulfoxide (unless otherwise noted), then diluted 1:200 in cell culture medium. Further dilutions (half-log10) are prepared before adding to an equal volume of medium containing either infected or noninfected cells. Cultures are incubated at 37° in a 5% carbon dioxide atmosphere for 6 or 7 days. The tetrazolium salt, XTT, is added to all wells, and cultures are incubated to allow formazan color development by viable cells (J. National Cancer Institute, 1989;81:577-586). Individual wells are analyzed spectrophotometrically to quantitate formazan production, and in addition are viewed microscopically for detection of viable cells confirmation of protective activity.
(§7) Drug-tested virus-infected cells are compared with drug-treated noninfected cells and with other appropriate controls (untreated infected and untreated noninfected cells, drug-contain wells without cells, etc.) on the same plate. Data are reviewed in comparison with other tests done at the same time and a determination about activity is made.

[5] = CEM cell growth inhibition (XTT, noninfected cells); assay type: cell-based; details: human, CEM Cell Assay, drug alone, read-out: IC50 (Inhibitory Concentration where drug alone inhibits cell growth)
Protocol: as §4, §5, §6, §7

HIV-1RF = experiment: Anti-HIV activity, HIV-1RF in CEM cells; assay type: cell-based; details: Human immunodeficiency virus 1, CCRF-CEM
Protocol: as §4, §5, §6, §7
(§8) The compounds of the invention were also evaluated against various other HIV strains and cell lines utilizing the assay methodology described above. The compounds were additionally evaluated against clinical isolates of HIV strains.

HIV-1IIIb [6] = experiment: Anti-HIV activity, HIV-1IIIb in CEM cells; assay type: cell-based; details: Human immunodeficiency virus 1, CCRF-CEM
Protocol: as §4, §5, §6, §7, §8

HIV-16R = experiment: Anti-HIV activity, HIV-16R in MT-4 cells; assay type: cell-based, HIV-1
Protocol: as §8

HIV-1A17 [7] = experiment: Anti-HIV activity, HIV-1A17 in MT-4 cells; assay type: cell-based
Protocol: as §8

HIV-1N119 = experiment: Anti-HIV activity, HIV-1N119 in CEM cells; assay type: cell-based; details: Human immunodeficiency virus 1, CCRF-CEM
Protocol: as §4, §5, §6, §7, §8

HIV-2ROD = experiment: Anti-HIV activity, HIV-2ROD in CEM cells; assay type: cell-based; details: Human immunodeficiency virus 2, CCRF-CEM
Protocol: as §4, §5, §6, §7, §8

SIV = experiment: Antiviral activity, SIV in CEM cells; assay type: cell-based; details: Simian immunodeficiency virus, CCRF-CEM
HIV-1WEIO = experiment: Anti-HIV activity, clinical isolate HIV-1WEIO in PBL; assay type: cell-based
Protocol: as §8

E. coli B90 = experiment: Antibacterial activity, microtitration; assay type: cell-based; details: Gram (-)
Protocol: (§9) The compounds are additionally useful as broad spectrum antibiotics. Minimum inhibitory concentrations were determined utilizing microtitration techniques described by Heifetz, et. al., Antimicrobial Agents and Chemotherapy, 1974, Vol. 6, 124. The data establish that the compounds have activity against a broad spectrum of bacteria, both Gram +and Gram -. Accordingly, the compounds can be utilized to treat and prevent bacterial diseases in animals and humans. They can also be used as industrial disinfectants, for example, to reduce bacterial growth in shower stalls and public areas.

E. coli MC4100 = experiment: Antibacterial activity, microtitration; assay type: cell-based; details: Gram (-)
Protocol: as §9

Stah. aureus RBI = experiment: Antibacterial activity, microtitration; assay type: cell-based; details: Gram (+)
Protocol: as §9

Strep. pyogenes c-203 = experiment: Antibacterial activity, microtitration; assay type: cell-based; details: Gram (+)
Protocol: as §9

HIV-1IIIb [8] = experiment: Anti-HIV activity, HIV-1IIIb in MT-2 cells; assay type: cell-based; details: Human immunodeficiency virus 1, MT2; MT-2, HIV-1IIIb
Protocol: as §8

HIV-1A17 [9] = experiment: Anti-HIV activity, HIV-1A17 in MT-2 cells; assay type: cell-based; details: Human immunodeficiency virus 1, MT2
Protocol: as §8

[10] = Human immunodeficiency virus 1, MT4, read-out: EC50 (AZT)
[11] = Human immunodeficiency virus 1, MT4

Structure (SMILES)	% Zinc Extrusion Relative to Control [1] [%]	EC50 (HIV-1 [2]) [µM]	CC50 at 168 h [3] [µM]	EC50 (HIV-1 [4]) [µM]	CC50 [5] [µM]	Minimum inhibitory concentration (E. coli B90)	Minimum inhibitory concentration (E. coli MC4100)	Minimum inhibitory concentration (Stah. aureus RBI)	Minimum inhibitory concentration (Strep. pyogenes c-203)	further results
CCC(C)C(NC(=O)c1ccccc1SSc1ccccc1C(=O)NC(C(=O)O)C(C)CC)C(=O)O (racemic) [Example 5, 2-[[2-[(1-Carboxy-2-methylbutylcarbamoyl)phenyldisulfanyl]-benzoyl]-amino]-3-methylpentanoic acid]	87	1.4	62	10.5	105					
Cc1cn([C@H]2C[C@H](N=[N+]=[N-])[C@@H](CO)O2)c(=O)[nH]c1=O [AZT, azidothymidine, reference compound]										EC50 (HIV-1RF; read-out: EC50 (AZT)): 0.0006 µM; EC50 (HIV-1IIIb [6]; read-out: EC50 (AZT)): 0.0045 µM; EC50 (HIV-16R; [10]): > 1 µM; EC50 (HIV-1A17 [7]; [10]): 0.114 µM; EC50 (HIV-1N119; read-out: EC50 (AZT)): 0.0444 µM; EC50 (HIV-2ROD; read-out: EC50 (AZT)): 0.00141 µM; EC50 (SIV; read-out: EC50 (AZT)): 0.245 µM; EC50 (HIV-1WEIO; Human immunodeficiency virus 1, read-out: EC50 (AZT)): 0.003 µM
CC(=O)NS(=O)(=O)c1ccc(NC(=O)c2ccccc2SSc2ccccc2C(=O)Nc2ccc(S(=O)(=O)NC(C)=O)cc2)cc1 [Example 4, 2,2'-Dithiobis-N-[4-[(acetylamino)sulfonyl]phenyl]benzamide]	87	4.8	27			32	128	256	64	EC50 (HIV-1RF; CEM, HIV-1RF, read-out: EC50): 1.5 µM; EC50 (HIV-1IIIb [6]; CEM, HIV-1IIIb, read-out: EC50): 5.2 µM; EC50 (HIV-16R; [11]): 1.9 µM; EC50 (HIV-1A17 [7]; [11]): 8.9 µM; EC50 (HIV-1N119): 4.6 µM; EC50 (HIV-2ROD; CEM, HIV-2ROD, read-out: EC50): 3 µM; EC50 (SIV; read-out: EC50): 3.4 µM; EC50 (HIV-1WEIO; Human immunodeficiency virus 1): 5.2 µM
NS(=O)(=O)c1ccc(NC(=O)c2ccccc2S)cc1 [Example 6, 2-Thio-N-(4-sulfamoylphenyl)benzamide]		2.5	28	5.2	> 100	32	64	128	64	
NS(=O)(=O)c1ccc(NC(=O)c2ccc(SSc3ccc(C(=O)Nc4ccc(S(N)(=O)=O)cc4)cc3)cc2)cc1 [Reference Compound, 4,4dithiobis-4sulfamoyl benzanilide, reference compound]	0	> 100	> 100	> 100	> 100					
O=c1[nH]cnc2c1ncn2[C@H]1CC[C@@H](CO)O1 [ddI, dideoxyinosine, reference compound]										EC50 (HIV-1IIIb [8]): 6 µM; EC50 (HIV-1A17 [9]): 4.6 µM
